In US11298361B2, “Fused benzazepines for treatment of Tourette's Syndrome” (EMALEX BIOSCIENCES, INC., priority 2012, dated 2022):
Where two headings read alike, the source gives them in different places.

Legend:
[1] = molecular target: D1/D5 receptor (^3H-23390); settings: radioligand ^3H-23390; cited from earlier work
CAR = settings: cited from earlier work
D2 receptor (^3H-Spip) = D2 receptor (^3H-Spip) (Homo sapiens, UniProt P14416)
D1 receptor = settings: rats, D1-agonist discriminative stimulus; cited from earlier work
[2] = molecular target: dopamine D1 receptors in human brain (Homo sapiens, UniProt P21728); settings: radiolabeled ecopipam, healthy volunteers; cited from earlier work
dopamine D1 receptors in human brain, sequence (P21728 whole entry): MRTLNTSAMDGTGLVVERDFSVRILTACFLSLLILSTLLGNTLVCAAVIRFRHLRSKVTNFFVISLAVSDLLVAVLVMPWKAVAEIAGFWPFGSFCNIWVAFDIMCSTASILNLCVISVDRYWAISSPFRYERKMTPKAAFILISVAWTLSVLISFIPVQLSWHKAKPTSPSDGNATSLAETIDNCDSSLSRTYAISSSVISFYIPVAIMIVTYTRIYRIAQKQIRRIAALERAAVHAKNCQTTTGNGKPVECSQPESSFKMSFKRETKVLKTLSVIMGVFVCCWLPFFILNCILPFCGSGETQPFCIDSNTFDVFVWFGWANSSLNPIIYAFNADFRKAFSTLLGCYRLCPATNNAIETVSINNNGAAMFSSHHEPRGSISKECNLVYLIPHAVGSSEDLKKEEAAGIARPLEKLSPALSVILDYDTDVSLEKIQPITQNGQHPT

[3] = tested on: adenosine, benzodiazepine, glutamate/AMPA/kainate, GABA, muscarinic, nicotinic, opiate, alpha- or beta-adrenergic sites; assay: Binding at other receptor sites
hD1/hD5 receptors = assay: Binding to cloned human receptors
Description: (§1) Activation of D1 receptors by dopamine and similar agonists stimulates the production of cyclic AMP (cAMP) via activation of adenylate cyclase. […] To ensure that there was no species specificity to the receptor binding profile, ecopipam's potency and selectivity were evaluated using cloned human receptors. […] Positron emission tomography (PET) studies using radiolabeled ecopipam have been conducted in healthy volunteers (Karlsson et al., Psychopharmacol. 121:300-308, 1995).

D1 receptors = assay: In vitro studies on cAMP second messenger (adenylate cyclase); format: biochemical
Description: as §1

[4] = tested on: adult patients with Tourette's Syndrome; assay: Open-label clinical study in adult patients with Tourette's Syndrome; format: in vivo, human
Description: A clinical program was carried out to test the safety, tolerability, and activity of ecopipam in adult patients with Tourette's Syndrome. A multicenter, open-label, nonrandomized study in 25 to 30 subjects was conducted to assess the activity and safety of ecopipam in subjects with TS. […] Assessment was performed at each visit. A follow-up visit was conducted via telephone at Week 10 to record any adverse events. Ecopipam was administered daily before bedtime at 50 mg/day for Week 1 and Week 2 and at 100 mg/day for Weeks 3-8. This treatment regimen is within the scope of the present invention; the compositions and various formulations described herein can be administered as described in this Example. The activity of ecopipam was measured using the following clinical rating scales: (1) Yale Global Tic Severity Scale (YGTSS; data based on this scoring system are presented below); (2) ADHD self-report symptom checklist (ASRS); (3)Yale-Brown Obsessive Compulsive Scale (YBOCS); (4) Premonitory Urge for […]; and (6) Clinical Global Impression Improvement and Severity Scales (CGI). The demographics of the study population were as follows: eighty three percent of the subjects were male (15 out of 18); fifteen were Caucasian, two were African-American, and one was an Asian/Pacific Islander. […] Four patients reported AEs that were rated as severe and included the following: sedation, insomnia, decreased appetite, hypersensitivity, cold sweat, and feeling jittery. The following AEs were rated mild to moderate and were reported in more than three subjects: fatigue, insomnia, nausea, sedation, headache, restlessness, anxiety, muscle twitching, dysphoria, and sleeplessness. These side effects are similar to those seen in other studies with ecopipam and were not unexpected.

D1/D5 receptors = settings: rat brain homogenates, low concentrations; cited from earlier work
[5] = radioligand ^3H-Spip; read-out: Ki (nM) ^3H-Spip; cited from earlier work

D2 receptor (^3H-Spip), sequence (P14416 whole entry): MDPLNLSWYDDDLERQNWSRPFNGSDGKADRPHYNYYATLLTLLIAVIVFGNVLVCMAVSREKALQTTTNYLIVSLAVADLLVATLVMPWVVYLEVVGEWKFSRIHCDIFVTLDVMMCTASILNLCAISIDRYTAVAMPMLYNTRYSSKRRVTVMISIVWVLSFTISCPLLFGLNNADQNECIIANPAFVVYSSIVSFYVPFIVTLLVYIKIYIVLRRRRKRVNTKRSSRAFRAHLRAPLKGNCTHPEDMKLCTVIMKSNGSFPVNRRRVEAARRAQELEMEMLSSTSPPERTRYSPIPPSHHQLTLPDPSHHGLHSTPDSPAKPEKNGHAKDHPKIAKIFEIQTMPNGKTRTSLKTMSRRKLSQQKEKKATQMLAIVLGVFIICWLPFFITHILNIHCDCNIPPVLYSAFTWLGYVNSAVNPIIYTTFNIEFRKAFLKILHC

CN1CCc2cc(Cl)c(O)cc2C2c3ccccc3CC21 (stereo not drawn) [Q=CH2, n=0, trans, X=Cl, Y=OH]
Ki [1]: 10 nM

CN1CCc2cc(Cl)c(O)cc2[C@H]2c3ccccc3CC[C@@H]21 [Q=CH2, n=1, 7b(R):7a(S)(−), X=Cl, Y=OH]
CAR (MED), po (CAR): 30 (po)

CN1CCc2cc(Cl)c(O)cc2[C@@H]2c3ccccc3CC[C@H]21 [Q=CH2, n=1, 7b(S):7a(R)(+), X=Cl, Y=OH]
CAR (MED), po (CAR): >30 (po)

COc1cc2c(cc1O)C1c3ccccc3CCC1N(C)CC2 (stereo not drawn) [Q=CH2, n=1, cis, X=CH3O, Y=OH]
Ki (D2 receptor (^3H-Spip); read-out: Ki (nM) ^3H-Spip; radioligand ^3H-Spip; cited from earlier work): > 100000 nM
Ki [1]: 6450 nM

Cc1cc2c(cc1O)C1c3ccccc3CCC1N(C)CC2 (stereo not drawn) [Q=CH2, n=1, trans, X=CH3, Y=OH]
Ki [1]: 119 nM

COc1cc2c(cc1O)C1c3ccccc3CCC1N(C)CC2 (stereo not drawn) [Q=CH2, n=1, trans, X=CH3O, Y=OH]
CAR (MED), po (CAR): 30 mg/kg
CAR (MED), sc (CAR; in mg/kg (unit assumed)): 0.3-1
Ki [1]: 23 nM

CN1CCc2cc(Cl)c(N)cc2C2c3ccccc3CCC21 (stereo not drawn) [Q=CH2, n=1, trans, X=Cl, Y=NH2]
CAR (MED), po (CAR): 3 (po)
Ki [1]: 70 nM

CN1CCc2cc(Cl)c(O)cc2C2c3ccccc3CCC21 (stereo not drawn) [Q=CH2, n=1, trans, X=Cl, Y=OH]
CAR (MED), po (CAR): 30 mg/kg
CAR (MED), sc (CAR; in mg/kg (unit assumed)): 0.3

CN1CCc2ccc(O)cc2C2c3ccccc3CCC21 (stereo not drawn) [Q=CH2, n=1, trans, X=H, Y=OH]
Ki [1]: 80 nM

COc1cc2c(cc1O)C1c3ccccc3CCCC1N(C)CC2 (stereo not drawn) [Q=CH2, n=2, trans, X=CH3O, Y=OH]
CAR (MED), sc (CAR): 10 (sc)
Ki (D2 receptor (^3H-Spip); [5]): > 100000 nM
Ki [1]: 292 nM

COc1cc2c(cc1O)CCN(C)C1CCCc3ccccc3C21 (stereo not drawn) [Q=CH2, n=2, trans, X=HO, Y=CH3O]
CAR (MED), sc (CAR): 10 (sc)
Ki (D2 receptor (^3H-Spip); [5]): > 100000 nM
Ki [1]: 7730 nM

CN1CCc2ccc(O)cc2C2c3ccccc3OCC21 (stereo not drawn) [Q=O, n=1, trans, X=H, Y=OH]
Ki [1]: 121 nM

CN1CCc2cc(Cl)c(O)cc2[C@H]2c3ccccc3CC[C@@H]21 [ecopipam, (−)-trans-6,7,7a,8,9,13b-hexahydro-3-chloro-2-hydroxy-N-methyl-5H-benzo [d]-naphtho-[2,1-b]azepine]
Action on dopamine-agonist-induced behaviors (D1 receptor): selective D1 antagonist
PET binding in the human brain [2]: specific binding in the human brain
Concentration multiple at which it did not bind to other sites [3]: > 700 fold
Affinity for hD1/hD5 receptors (hD1/hD5 receptors): high affinity
Functional action on cAMP second messenger (D1 receptors): antagonist
Patients with at least one grade change in CGI-S score ([4]; 9 of the 15 patients, p≤0.01 Student's t test): 60%
Subjects reporting adverse events ([4]; 18 subjects): All subjects reported at least one adverse event
Change in YGTSS scores, intent to treat analysis ([4]; entire population n=18): statistically significant changes were evident
Change in YGTSS scores (motor, phonic, total severity), baseline to last visit ([4]; fifteen patients who completed the trial, 50 mg/day Weeks 1-2, 100 mg/day Weeks 3-8): highly statistically significant (Paired t-Test p<0.001) reduction
Changes in lab tests ([4]; human, in vivo): none were of clinical significance
Changes in vital signs ([4]; human, in vivo): no clinically significant changes in vital signs
Serious adverse events ([4]; requiring medical intervention): no serious adverse events
Patients reporting AEs rated as severe ([4]; sedation, insomnia, decreased appetite, hypersensitivity, cold sweat, feeling jittery): Four
Affinity for D1/D5 receptors (D1/D5 receptors): high affinity
